ChEMBL document CHEMBL3991601, “The target landscape of clinical kinase drugs” (Science, 2017)
The source made the active and inactive calls. Cut-off read from the data, not from the text of the source, for most assays here: actives have a measured Kd and inactives only a lower limit.

How the values were obtained:
[1] = target: Glycogen synthase kinase-3 alpha (Homo sapiens, UniProt P49840)
dCTP pyrophosphatase 1 = target: T1, dCTP pyrophosphatase 1 (Homo sapiens, UniProt Q9H773)
T1 sequence (Q9H773 whole entry): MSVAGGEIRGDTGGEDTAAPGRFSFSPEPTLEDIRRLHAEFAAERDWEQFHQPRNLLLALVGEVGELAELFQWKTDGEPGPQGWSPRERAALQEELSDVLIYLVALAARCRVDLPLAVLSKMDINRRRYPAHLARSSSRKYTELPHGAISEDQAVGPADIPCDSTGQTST

[2] = target: T2, Serine/threonine-protein kinase NLK (Homo sapiens, UniProt Q9UBE8)
T2 sequence (Q9UBE8 whole entry): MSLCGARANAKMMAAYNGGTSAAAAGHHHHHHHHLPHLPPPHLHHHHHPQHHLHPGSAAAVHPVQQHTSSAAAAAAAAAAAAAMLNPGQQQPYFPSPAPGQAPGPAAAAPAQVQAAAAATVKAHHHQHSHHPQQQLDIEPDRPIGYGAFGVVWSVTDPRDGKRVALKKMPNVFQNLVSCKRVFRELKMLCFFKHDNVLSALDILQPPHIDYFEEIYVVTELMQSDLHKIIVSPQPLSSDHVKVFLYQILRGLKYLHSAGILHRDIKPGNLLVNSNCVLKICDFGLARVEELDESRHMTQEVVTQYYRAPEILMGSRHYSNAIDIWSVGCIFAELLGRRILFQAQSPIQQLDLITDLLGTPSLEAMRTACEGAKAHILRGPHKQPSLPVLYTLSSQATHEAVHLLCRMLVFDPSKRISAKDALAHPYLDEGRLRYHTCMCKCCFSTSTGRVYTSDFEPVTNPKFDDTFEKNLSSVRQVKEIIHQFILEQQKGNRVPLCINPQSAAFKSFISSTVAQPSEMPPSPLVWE

[3] = target: Dual specificity protein kinase CLK2 (Homo sapiens, UniProt P49760)
[4] = target: MAP/microtubule affinity-regulating kinase 3 (Homo sapiens, UniProt P27448)
[5] = target: T3, Beta-adrenergic receptor kinase 1 (Homo sapiens, UniProt P25098)
T3 sequence (P25098 whole entry): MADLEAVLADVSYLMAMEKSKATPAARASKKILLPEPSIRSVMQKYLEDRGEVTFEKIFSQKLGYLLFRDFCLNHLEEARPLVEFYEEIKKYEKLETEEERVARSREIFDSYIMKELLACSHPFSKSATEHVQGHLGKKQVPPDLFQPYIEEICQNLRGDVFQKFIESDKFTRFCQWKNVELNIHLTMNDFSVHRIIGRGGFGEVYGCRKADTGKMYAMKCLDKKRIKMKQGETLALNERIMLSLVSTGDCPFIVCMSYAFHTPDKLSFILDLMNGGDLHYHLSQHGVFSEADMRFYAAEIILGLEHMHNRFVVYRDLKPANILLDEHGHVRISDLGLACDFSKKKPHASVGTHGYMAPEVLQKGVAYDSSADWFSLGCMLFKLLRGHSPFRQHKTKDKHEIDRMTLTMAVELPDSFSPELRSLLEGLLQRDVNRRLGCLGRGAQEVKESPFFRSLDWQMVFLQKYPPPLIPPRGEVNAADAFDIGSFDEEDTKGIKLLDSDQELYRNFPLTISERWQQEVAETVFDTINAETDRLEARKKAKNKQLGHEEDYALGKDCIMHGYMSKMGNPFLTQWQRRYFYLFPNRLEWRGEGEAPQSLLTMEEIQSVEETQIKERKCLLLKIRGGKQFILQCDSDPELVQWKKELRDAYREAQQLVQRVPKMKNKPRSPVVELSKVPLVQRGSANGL

[6] = target: T4, Tyrosine-protein kinase Tec (Homo sapiens, UniProt P42680)
T4 sequence (P42680 whole entry): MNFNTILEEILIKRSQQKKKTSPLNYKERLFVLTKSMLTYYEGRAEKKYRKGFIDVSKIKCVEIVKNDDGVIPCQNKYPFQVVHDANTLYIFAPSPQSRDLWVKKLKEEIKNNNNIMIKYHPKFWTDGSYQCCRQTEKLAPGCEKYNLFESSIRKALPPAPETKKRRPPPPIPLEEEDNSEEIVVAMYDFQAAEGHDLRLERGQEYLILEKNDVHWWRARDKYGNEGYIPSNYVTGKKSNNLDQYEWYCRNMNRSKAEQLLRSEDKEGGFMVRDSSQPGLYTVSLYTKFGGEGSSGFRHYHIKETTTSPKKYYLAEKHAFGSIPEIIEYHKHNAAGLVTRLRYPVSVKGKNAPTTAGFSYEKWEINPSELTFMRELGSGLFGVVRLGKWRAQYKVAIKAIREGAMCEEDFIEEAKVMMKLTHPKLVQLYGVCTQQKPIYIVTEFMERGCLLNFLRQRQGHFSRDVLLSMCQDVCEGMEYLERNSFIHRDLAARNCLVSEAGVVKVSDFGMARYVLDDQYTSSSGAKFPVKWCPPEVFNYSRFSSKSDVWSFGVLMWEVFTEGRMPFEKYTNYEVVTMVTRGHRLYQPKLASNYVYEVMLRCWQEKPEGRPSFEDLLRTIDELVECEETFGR

[7] = target: Cyclin-dependent kinase 2 (Homo sapiens, UniProt P24941)
[8] = target: Calcium/calmodulin-dependent protein kinase type II subunit delta (Homo sapiens, UniProt Q13557)
[9] = target: T5, Serine/threonine-protein kinase STK11 (Homo sapiens, UniProt Q15831)
T5 sequence (Q15831 whole entry): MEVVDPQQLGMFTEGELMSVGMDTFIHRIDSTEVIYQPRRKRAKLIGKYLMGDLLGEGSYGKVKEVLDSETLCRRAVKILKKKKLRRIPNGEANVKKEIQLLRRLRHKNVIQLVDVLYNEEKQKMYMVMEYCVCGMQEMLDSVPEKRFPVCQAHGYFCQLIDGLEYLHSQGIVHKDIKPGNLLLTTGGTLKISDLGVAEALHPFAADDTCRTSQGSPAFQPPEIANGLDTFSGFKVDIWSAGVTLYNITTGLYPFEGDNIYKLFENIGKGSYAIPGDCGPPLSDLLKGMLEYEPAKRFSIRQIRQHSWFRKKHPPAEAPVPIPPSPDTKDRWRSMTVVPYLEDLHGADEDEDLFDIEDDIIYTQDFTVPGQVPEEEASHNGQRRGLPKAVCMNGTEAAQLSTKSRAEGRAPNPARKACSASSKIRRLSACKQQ
Note: in the data inactive means no Kd found up to 30 µM.

Sequence of MAP/microtubule affinity-regulating kinase 3 (P27448 whole entry): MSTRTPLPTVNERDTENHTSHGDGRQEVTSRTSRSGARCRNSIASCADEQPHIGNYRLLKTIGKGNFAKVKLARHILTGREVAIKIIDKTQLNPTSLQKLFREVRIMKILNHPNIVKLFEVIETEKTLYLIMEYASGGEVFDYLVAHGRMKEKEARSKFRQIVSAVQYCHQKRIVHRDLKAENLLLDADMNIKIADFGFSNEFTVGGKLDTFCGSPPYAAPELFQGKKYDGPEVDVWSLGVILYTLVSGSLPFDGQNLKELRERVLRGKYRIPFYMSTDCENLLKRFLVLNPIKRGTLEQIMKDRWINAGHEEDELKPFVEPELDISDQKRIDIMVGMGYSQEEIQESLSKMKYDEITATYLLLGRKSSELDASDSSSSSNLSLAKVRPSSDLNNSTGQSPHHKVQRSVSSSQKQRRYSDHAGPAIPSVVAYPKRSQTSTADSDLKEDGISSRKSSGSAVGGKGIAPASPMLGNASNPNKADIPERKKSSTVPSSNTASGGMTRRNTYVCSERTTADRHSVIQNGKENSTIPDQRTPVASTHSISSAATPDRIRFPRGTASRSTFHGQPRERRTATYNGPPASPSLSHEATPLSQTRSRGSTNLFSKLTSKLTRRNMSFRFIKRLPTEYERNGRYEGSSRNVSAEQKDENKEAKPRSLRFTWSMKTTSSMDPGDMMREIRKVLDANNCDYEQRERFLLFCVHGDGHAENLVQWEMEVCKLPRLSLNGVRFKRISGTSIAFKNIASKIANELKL
Sequence of Glycogen synthase kinase-3 alpha (P49840 whole entry): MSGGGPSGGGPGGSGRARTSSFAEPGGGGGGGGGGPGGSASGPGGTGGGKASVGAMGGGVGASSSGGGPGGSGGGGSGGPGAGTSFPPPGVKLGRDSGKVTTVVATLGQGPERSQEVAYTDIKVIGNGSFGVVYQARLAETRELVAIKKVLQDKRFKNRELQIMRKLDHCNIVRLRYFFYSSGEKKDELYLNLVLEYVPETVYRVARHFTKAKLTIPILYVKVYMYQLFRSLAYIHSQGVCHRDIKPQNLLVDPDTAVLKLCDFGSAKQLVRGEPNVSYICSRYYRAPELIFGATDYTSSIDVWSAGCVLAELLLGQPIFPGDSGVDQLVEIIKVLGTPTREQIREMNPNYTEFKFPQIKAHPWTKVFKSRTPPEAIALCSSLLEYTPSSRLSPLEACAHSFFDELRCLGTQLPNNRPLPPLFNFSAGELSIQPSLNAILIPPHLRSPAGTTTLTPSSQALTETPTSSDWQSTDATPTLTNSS
Sequence of Dual specificity protein kinase CLK2 (P49760 whole entry): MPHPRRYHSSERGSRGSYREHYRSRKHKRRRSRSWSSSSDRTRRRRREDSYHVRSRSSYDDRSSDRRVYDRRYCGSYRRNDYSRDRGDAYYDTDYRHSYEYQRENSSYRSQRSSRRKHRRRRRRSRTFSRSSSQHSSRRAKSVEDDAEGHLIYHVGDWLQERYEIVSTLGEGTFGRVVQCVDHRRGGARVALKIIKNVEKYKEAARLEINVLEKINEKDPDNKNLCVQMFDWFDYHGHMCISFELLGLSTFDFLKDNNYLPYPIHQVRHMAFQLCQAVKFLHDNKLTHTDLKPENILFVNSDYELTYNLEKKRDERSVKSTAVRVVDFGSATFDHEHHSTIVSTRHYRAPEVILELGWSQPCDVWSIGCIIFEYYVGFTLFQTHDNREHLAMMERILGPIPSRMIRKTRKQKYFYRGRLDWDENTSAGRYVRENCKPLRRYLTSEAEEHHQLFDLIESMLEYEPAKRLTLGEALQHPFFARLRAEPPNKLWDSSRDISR
Sequence of Calcium/calmodulin-dependent protein kinase type II subunit delta (Q13557 whole entry): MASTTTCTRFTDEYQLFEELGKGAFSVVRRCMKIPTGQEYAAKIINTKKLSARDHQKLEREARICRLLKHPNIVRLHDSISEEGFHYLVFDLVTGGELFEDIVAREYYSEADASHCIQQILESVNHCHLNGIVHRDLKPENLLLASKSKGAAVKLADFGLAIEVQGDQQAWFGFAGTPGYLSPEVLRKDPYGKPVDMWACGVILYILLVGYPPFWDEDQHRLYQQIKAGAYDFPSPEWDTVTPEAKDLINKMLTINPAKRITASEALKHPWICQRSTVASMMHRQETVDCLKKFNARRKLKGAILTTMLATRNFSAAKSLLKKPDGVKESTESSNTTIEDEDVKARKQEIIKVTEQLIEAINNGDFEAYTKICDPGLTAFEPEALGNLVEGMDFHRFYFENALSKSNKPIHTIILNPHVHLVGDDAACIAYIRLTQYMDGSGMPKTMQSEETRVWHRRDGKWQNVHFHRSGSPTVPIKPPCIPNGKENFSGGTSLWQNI

COCC(=O)NC/C=C/c1ccc2ncnc(Nc3ccc(Oc4ccc(C)nc4)c(C)c3)c2c1 [CP-724714]
Kd [1]: > 30 µM (inactive) | Kd (dCTP pyrophosphatase 1): > 30 µM (inactive) | Kd [2]: > 30 µM (inactive) | Kd [3]: > 30 µM (inactive) | Kd [4]: > 30 µM (inactive) | Kd [5]: > 30 µM (inactive) | Kd [6]: > 30 µM (inactive) | Kd [7]: > 30 µM (inactive) | Kd [8]: > 30 µM (inactive) | Kd [9]: > 30 µM (inactive)

C#Cc1cccc(Nc2ncnc3cc(OC)c(OCCCCCCC(=O)NO)cc23)c1 [CUDC-101]
Kd [1]: > 30 µM (inactive) | Kd (dCTP pyrophosphatase 1): > 30 µM (inactive) | Kd [2]: > 30 µM (inactive) | Kd [3]: > 30 µM (inactive) | Kd [4]: > 30 µM (inactive) | Kd [5]: > 30 µM (inactive) | Kd [6]: > 30 µM (inactive) | Kd [7]: > 30 µM (inactive) | Kd [8]: > 30 µM (inactive) | Kd [9]: > 30 µM (inactive)

O=C(Nc1nc2cccc(-c3ccc(CN4CCS(=O)(=O)CC4)cc3)n2n1)C1CC1 [FILGOTINIB]
Kd [1]: > 30 µM (inactive) | Kd (dCTP pyrophosphatase 1): > 30 µM (inactive) | Kd [2]: > 30 µM (inactive) | Kd [3]: > 30 µM (inactive) | Kd [4]: > 30 µM (inactive) | Kd [5]: > 30 µM (inactive) | Kd [6]: > 30 µM (inactive) | Kd [7]: > 30 µM (inactive) | Kd [8]: > 30 µM (inactive) | Kd [9]: > 30 µM (inactive)

Cc1cccc(-c2nn3c(c2-c2ccnc4ccc(C(N)=O)cc24)CCC3)n1 [GALUNISERTIB]
Kd [1]: > 30 µM (inactive) | Kd (dCTP pyrophosphatase 1): > 30 µM (inactive) | Kd [2]: > 30 µM (inactive) | Kd [3]: > 30 µM (inactive) | Kd [4]: > 30 µM (inactive) | Kd [5]: > 30 µM (inactive) | Kd [6]: > 30 µM (inactive) | Kd [7]: > 30 µM (inactive) | Kd [8]: > 30 µM (inactive) | Kd [9]: > 30 µM (inactive)

COc1ccc(S(=O)(=O)N(C(C)=O)c2ccccc2/C=C/c2cc[n+]([O-])cc2)cc1 [HMN-214]
Kd [1]: > 30 µM (inactive) | Kd (dCTP pyrophosphatase 1): > 30 µM (inactive) | Kd [2]: > 30 µM (inactive) | Kd [3]: > 30 µM (inactive) | Kd [4]: > 30 µM (inactive) | Kd [5]: > 30 µM (inactive) | Kd [6]: > 30 µM (inactive) | Kd [7]: > 30 µM (inactive) | Kd [8]: > 30 µM (inactive) | Kd [9]: > 30 µM (inactive)

CNC(=O)c1nn(C)c2c1C(C)(C)Cc1cnc(Nc3ccc(N4CCN(C)CC4)cc3)nc1-2 [MILCICLIB]
Kd [1]: > 30 µM (inactive) | Kd (dCTP pyrophosphatase 1): 1.59 µM (active) | Kd [2]: > 30 µM (inactive) | Kd [3]: > 30 µM (inactive) | Kd [4]: 3.44 µM (active) | Kd [5]: > 30 µM (inactive) | Kd [6]: > 30 µM (inactive) | Kd [7]: 0.739 µM (active) | Kd [8]: > 30 µM (inactive) | Kd [9]: > 30 µM (inactive)

NC1(c2ccc(-c3nc4ccn5c(=O)[nH]nc5c4cc3-c3ccccc3)cc2)CCC1 [MK-2206]
Kd [1]: > 30 µM (inactive) | Kd (dCTP pyrophosphatase 1): > 30 µM (inactive) | Kd [2]: > 30 µM (inactive) | Kd [3]: > 30 µM (inactive) | Kd [4]: > 30 µM (inactive) | Kd [5]: > 30 µM (inactive) | Kd [6]: > 30 µM (inactive) | Kd [7]: > 30 µM (inactive) | Kd [8]: > 30 µM (inactive) | Kd [9]: > 30 µM (inactive)

Cn1cc(-c2cnc3ccc4ccc(CS(=O)(=O)NCc5ccccn5)cc4c(=O)c3c2)cn1 [MK-8033]
Kd [1]: > 30 µM (inactive) | Kd (dCTP pyrophosphatase 1): > 30 µM (inactive) | Kd [2]: > 30 µM (inactive) | Kd [3]: > 30 µM (inactive) | Kd [4]: > 30 µM (inactive) | Kd [5]: > 30 µM (inactive) | Kd [6]: > 30 µM (inactive) | Kd [7]: > 30 µM (inactive) | Kd [8]: > 30 µM (inactive) | Kd [9]: > 30 µM (inactive)

FC(F)(F)c1ccc(/C=C/c2nc(COc3ccc(CCCCn4ccnn4)cc3)co2)cc1 [MUBRITINIB]
Kd [1]: > 30 µM (inactive) | Kd (dCTP pyrophosphatase 1): > 30 µM (inactive) | Kd [2]: > 30 µM (inactive) | Kd [3]: > 30 µM (inactive) | Kd [4]: > 30 µM (inactive) | Kd [5]: > 30 µM (inactive) | Kd [6]: > 30 µM (inactive) | Kd [7]: > 30 µM (inactive) | Kd [8]: > 30 µM (inactive) | Kd [9]: > 30 µM (inactive)

COc1ncc(-c2ccc3nccc(-c4ccnnc4)c3c2)cc1NS(=O)(=O)c1ccc(F)cc1F [OMIPALISIB]
Kd [1]: > 30 µM (inactive) | Kd (dCTP pyrophosphatase 1): > 30 µM (inactive) | Kd [2]: > 30 µM (inactive) | Kd [3]: > 30 µM (inactive) | Kd [4]: > 30 µM (inactive) | Kd [5]: > 30 µM (inactive) | Kd [6]: > 30 µM (inactive) | Kd [7]: > 30 µM (inactive) | Kd [8]: > 30 µM (inactive) | Kd [9]: > 30 µM (inactive)

CCOc1cc2ncc(C#N)c(Nc3ccc(F)c(Cl)c3)c2cc1NC(=O)/C=C/CN(C)C [PELITINIB]
Kd [1]: > 30 µM (inactive) | Kd (dCTP pyrophosphatase 1): > 30 µM (inactive) | Kd [2]: > 30 µM (inactive) | Kd [3]: > 30 µM (inactive) | Kd [4]: > 30 µM (inactive) | Kd [5]: > 30 µM (inactive) | Kd [6]: > 30 µM (inactive) | Kd [7]: > 30 µM (inactive) | Kd [8]: > 30 µM (inactive) | Kd [9]: > 30 µM (inactive)

Cc1cnc(NC(=O)Nc2cc(Br)c(C)cc2OC[C@@H]2CNCCO2)cn1 [RABUSERTIB]
Kd [1]: > 30 µM (inactive) | Kd (dCTP pyrophosphatase 1): > 30 µM (inactive) | Kd [2]: > 30 µM (inactive) | Kd [3]: > 30 µM (inactive) | Kd [4]: > 30 µM (inactive) | Kd [5]: > 30 µM (inactive) | Kd [6]: > 30 µM (inactive) | Kd [7]: > 30 µM (inactive) | Kd [8]: > 30 µM (inactive) | Kd [9]: > 30 µM (inactive)

CO[C@H]1C[C@@H]2CC[C@@H](C)[C@@](O)(O2)C(=O)C(=O)N2CCCC[C@H]2C(=O)O[C@H]([C@H](C)C[C@@H]2CC[C@@H](OP(C)(C)=O)[C@H](OC)C2)CC(=O)[C@H](C)/C=C(\C)[C@@H](O)[C@@H](OC)C(=O)[C@H](C)C[C@H](C)/C=C/C=C/C=C/1C [RIDAFOROLIMUS]
Kd [1]: > 30 µM (inactive) | Kd (dCTP pyrophosphatase 1): > 30 µM (inactive) | Kd [2]: > 30 µM (inactive) | Kd [3]: > 30 µM (inactive) | Kd [4]: > 30 µM (inactive) | Kd [5]: > 30 µM (inactive) | Kd [6]: > 30 µM (inactive) | Kd [7]: > 30 µM (inactive) | Kd [8]: > 30 µM (inactive) | Kd [9]: > 30 µM (inactive)

N#CC1(c2ccc(NC(=O)c3cccnc3NCc3ccncc3)cc2)CCCC1 [RIVOCERANIB]
Kd [1]: > 30 µM (inactive) | Kd (dCTP pyrophosphatase 1): > 30 µM (inactive) | Kd [2]: > 30 µM (inactive) | Kd [3]: > 30 µM (inactive) | Kd [4]: > 30 µM (inactive) | Kd [5]: > 30 µM (inactive) | Kd [6]: > 30 µM (inactive) | Kd [7]: > 30 µM (inactive) | Kd [8]: > 30 µM (inactive) | Kd [9]: > 30 µM (inactive)
